According to US20110152207A1, “USE OF VITAMIN D GLYCOSIDES AND SULFATES FOR TREATMENT OF DISEASE” (priority 2009, published 2011):
Marks after values point to notes of the source that are not given here.

Columns and labels:
[1] = calcitriol = 1; cited from earlier work
[2] = test system: DSS-induced inflammation of the lower colon; assay: Dextran sodium sulfate (DSS) mouse model of IBD; assay type: in vivo; conditions: DSS mice
Description: (§1) In this example, β-gluc-1,25-D3 compounds, alone or in combination with 25-β-glucuronide-25-hydroxyvitamin D3 compounds (hereinafter β-gluc-25-D3) were incorporated into the diet of mice and compared to equimolar 1,25-D3 with respect to therapeutic effects on IBD and induction of calcemia. A standard mouse model of IBD comprising administering dextran sodium sulfate (DSS) to induce inflammation of the lower colon was used to study these effects. Vitamin D treatments were first initiated for 4 days. After 4 days, mice were fed DSS-water for 7 days, allowed one day to recover, and sacrificed. Colon length, plasma calcium, fecal blood score, and body weight were assayed. Colon length is a standard marker of intestinal inflammation in the literature, with shortened colon length being an indicator of inflammation. A 1-cm section of the mid-colon was removed, fixed in formalin, and stained with hematoxylin & eosin for microscopic histopathologic evaluation by a veterinary pathologist blinded to the treatments. Each tissue section received a score from 0 to 4 reflecting absence of lesion to severe, extensive lesion for each of three criteria: (1) the degree of erosion/ulceration of colon mucosa; (2) the degree of infiltration of the tissues by inflammatory cells; and (3) the degree of submucosal edema. The sum of the score of each of these criteria constitutes the histopathological score for the tissue with a zero score representing normal tissue based on all criteria, and the worst possible outcome being a score of 12.

[3] = Plasma calcium in the DSS mouse model of IBD; assay type: in vivo; conditions: DSS mice, 5000 ng/day in diet
Description: as §1

[4] = Hypercalcemic effect: plasma calcium in rats under continuous subcutaneous infusion; assay type: in vivo; conditions: for Plasma Calcium Mean ± SD: 12th day, in mg/dL (unit assumed)
Experimental: The pumps were filled aseptically with the appropriate dose of drug dissolved in propylene glycol. The pumps were surgically implanted under the skin on the dorsal neck and shoulder area aseptically. On the 12th day of infusion, rats were deeply anesthetized (isofluorane inhalation) and blood was collected by cardiac puncture for plasma calcium determination. The plasma calcium levels were determined by standard methods.

[5] = test system: β-glucuronidase activity, duodenum lumen contents; assay: β-glucuronidase cleavage in duodenum lumen contents, free 1,25-D3 by RIA; assay type: in vitro ADME, rats; conditions: 150 pg added
Experimental: (§3) The proximal 25 cm of duodenum/jejunum, the caudal 12 cm of ileum, and the cranial 12 cm of colon were removed. The contents from the lumen of each section were flushed with 3 ml water, collected, and pooled. Three-ml aliquots of intestinal contents were placed into tubes. To the tubes, either 2100 pg (3.53 pmoles) β-gluc-1,25-D3 was added and incubated at 37° C. for 0, 1, 3, or 6 hrs, or 150 pg (0.36 pmoles) of 1,25-D3 was added and incubated for 0 or 6 hrs. […] Acetonitrile (3 ml) was added to each tube after incubation to end all enzymatic activity, after which the 1,25-D3 was extracted. Tritiated 1,25-D3 was added to each tube to assess extraction efficiency. The preparations were cleaned by HPLC, and the samples were analyzed for 1,25-D3 content by RIA (Heartland Assays, Ames, Iowa) (Hollis et al., J. Steroid Biochem. Mol. Biol. 2007 103(3-5):473-6).

[6] = test system: β-glucuronidase activity, ileum lumen contents; assay: β-glucuronidase cleavage in ileum lumen contents, free 1,25-D3 by RIA; assay type: in vitro ADME, rats; conditions: 150 pg added
Experimental: as §3

Cyp24 [7] = assay: Cyp24 mRNA expression in colon of mice after a single oral dose; assay type: in vivo; conditions: 6 hrs
Experimental: (§2) Mice were decapitated 6 hrs later following light anesthesia under inhaled halothane. […] Tissue samples were flushed with ice-cold phosphate-buffered saline and immediately homogenized in 1 ml of TRIzol® reagent (Invitrogen Corp., Carlsbad, Calif.). Samples were then kept frozen at −86° C. prior to processing for RNA. For processing RNA, each TRIzol® homogenate was thawed at room temperature and 500 μl placed in a clean microfuge tube, mixed thoroughly with 100 μl chloroform for 15 sec and then centrifuged at 12,000×g for 15 min at 4° C. The upper aqueous phase was removed and mixed with 0.93 volumes of 75% EtOH. The mixture was then applied to an RNeasy spin column (Qiagen Inc., Germantown, Md.) and processed as described by the manufacturer with the exception that an additional wash with 2M NaCl/2 mM EDTA (pH 4.0) was included (Das et al. J Vet Diagn Invest. 2009; 21:771-778). RNA was eluted in 50 μl of water and the concentration obtained by UV spectrometry. One microgram of RNA was then used as a template for production of cDNA in a 20-μl reaction volume using random hexamers and Superscript III as described by the manufacturer (Invitrogen, Carlsbad, Calif.). Afterwards, samples were diluted to 100 μl final volume with TE buffer and stored at −20° C. prior to PCR analysis. Quantitative real-time RT-PCR was performed using a Stratagene Mx3005p cycler (Stratagene, La Jolla, Calif.) and PerfeCTa® SYBR® Green FastMix®, ROX reagent (Quanta Biosciences, Gaithersburg, Md.). Amplification of target cDNAs was accomplished with the following primers: Aliquots (8.3 ng) of cDNA were amplified under the following conditions: 95° C. for 30 sec, followed by 45 cycles of 95° C. for 1 sec and 57° C. for 30 sec. […] Oligonucleotides were obtained from Integrated DNA Technologies (Coralville, Iowa).

Cyp24 [8] = assay: Cyp24 mRNA expression in duodenum of mice after a single oral dose; assay type: in vivo; conditions: for Cyp24 expression in the duodenum, induction over control mice: 24 pmol per os
Experimental: as §2

LNCaP cells = assay: LNCaP cell proliferation (CELLTITER BLUE); assay type: cell-based, human; conditions: six days, control = 100
Experimental: LNCaP cells (ATCC # CRL-1740) are malignant prostate cancer cells originally obtained from a lymph node of a person whose prostatic cancer had metastasized to the lymph node. LNCaP cells were grown in tissue culture using RPMI-1640 media with 10% fetal bovine serum. Wells of two 48-well tissue culture plates were seeded with 5000 LNCaP cells/well. […] Half the media was replaced with fresh media with treatments on the third day of the treatment period. By day 6 of treatment, wells of control untreated cells were approximately 60% confluent. The live cell numbers in each well at the end of treatment were assessed using the “CELLTITER BLUE”-brand assay kit (Promega Corp., Madison, Wis.). The assay is based on the ability of living cells to convert a redox dye (resazurin) into a fluorescent end product (resorufin).

DU-145 cells = assay: DU-145 cell proliferation (CELLTITER BLUE); assay type: cell-based, human; conditions: 4 days, control = 100
Experimental: LNCaP cells (ATCC # CRL-1740) are malignant prostate cancer cells originally obtained from a lymph node of a person whose prostatic cancer had metastasized to the lymph node. LNCaP cells were grown in tissue culture using RPMI-1640 media with 10% fetal bovine serum. Wells of two 48-well tissue culture plates were seeded with 5000 LNCaP cells/well. […] Half the media was replaced with fresh media with treatments on the third day of the treatment period. By day 6 of treatment, wells of control untreated cells were approximately 60% confluent. The live cell numbers in each well at the end of treatment were assessed using the “CELLTITER BLUE”-brand assay kit (Promega Corp., Madison, Wis.). The assay is based on the ability of living cells to convert a redox dye (resazurin) into a fluorescent end product (resorufin). […] A similar study was performed using a second human-derived prostatic cancer cell line known as DU-145 (ATCC# HTB-81). […] Exp. Med. Biol. 1995 375:53-63). The DU-145 cells were propagated in Eagle's Minimum Essential Medium with 10% fetal bovine serum. The cells were treated in culture for just 4 days, with half the media replaced with fresh media on day 3 of treatment. Cells were 40% confluent at the end of treatment.

intestinal inflammation = conditions: Froicu et al., cited from earlier work
[9] = Plasma 1,25-D3 concentration in mice after a single oral dose (RIA)

## C=C1/C(=C\C=C2/CCC[C@]3(C)[C@@H]([C@H](C)/C=C/[C@@H](O)C4CC4)CC[C@@H]23)C[C@@H](O)CC1O (stereo partly drawn) [calcipotriol]
[1]
  calcemic index: about 0.01

## 25-β-glucuronide-25-hydroxyvitamin D3 [β-gluc-25-D3]
[2]; 5000 ng/day
  Histopathology score (0-12): 8.22 ± 0.72
  effect on IBD by itself: essentially ineffective by itself
[2]; 5000 ng/day in diet
  Colon Length: 5.50 ± 0.20 cm
  Final Body Weight: 21.16 ± 0.53 g
[2]; 5000 ng/day, scale 0-3
  Fecal Blood Score: 1.05 ± 0.34
[3]
  Plasma Calcium: 8.68 ± 0.27^d mg/dl

## C=C1/C(=C\C=C2/CCC[C@]3(C)[C@@H]([C@H](C)CCCC(C)(C)O)CC[C@@H]23)C[C@@H](O)C[C@@H]1O [1,25-D3, 1,25-dihydroxyvitamin D3, reference compound]
[4]; 10 ng/day continuous s.c. infusion
  Plasma Calcium Mean ± SD: 10.41 ± 0.27
[4]; 15 ng/day continuous s.c. infusion
  Plasma Calcium Mean ± SD: 10.78 ± 0.26
[4]; continuous s.c. infusion
  lowest dose inducing a statistically significant increase in plasma calcium levels: 15 ng/day
[4]; plasma calcium, 15 ng/day
  Significantly greater than control? Duncan's Multiple Range Test: Yes
[5]; 0 hrs incubation, 37° C.
  Measured Free 1,25-dihydroxy vitamin D: 96 pg
[5]; 6 hrs incubation
  Measured Free 1,25-dihydroxy vitamin D: 117 pg
[6]; 0 hrs incubation
  Measured Free 1,25-dihydroxy vitamin D: 129 pg
[6]; 6 hrs incubation
  Measured Free 1,25-dihydroxy vitamin D: 128 pg
Cyp24 [7]; 24 pmol per os
  increase in Cyp24 in the colon over control mice: about 5 fold
Cyp24 [7]; 48 pmol per os, relative to untreated mice
  increase in Cyp24 expression in the colon: ~4.8±4 fold
Cyp24 [8]; 1 hour
  Cyp24 expression in the duodenum, induction over control mice: 350 fold
Cyp24 [8]; 3 hours
  Cyp24 expression in the duodenum, induction over control mice: 1600 fold
Cyp24 [8]; 6 hours
  Cyp24 expression in the duodenum, induction over control mice: more than 2500 fold
Cyp24 [8]; 48 pmol per os, 6 hrs
  induction of Cyp24 gene expression in the duodenum: > 1000 fold
[2]; 10 ng/day in diet
  Colon Length: 5.52 ± 0.20 cm
  Final Body Weight: 21.39 ± 0.82 g
[2]; 10 ng/day, 0 = no blood to 3 = multiple blood spots
  Fecal Blood Score: 0.33 ± 0.12^c
[2]; 10 ng/day, 0 = no lesions, 12 = severe
  Histopathology score (0-12): 7.44 ± 0.50
[2]; 50 ng/day
  Histopathology score (0-12): 5.89 ± 0.54^c
  histopathological scores among the effective treatments: numerically the best
  improving inflammation: less effective than the 70-ng/day β-gluc-1,25-D3 plus 5000 ng/day β-gluc-25-D3 combination treatment
[2]; 50 ng/day in diet
  Colon Length: 5.74 ± 0.17 cm
  Final Body Weight: 20.82 ± 0.43 g
[2]; 50 ng/day, scale 0-3
  Fecal Blood Score: 0.22 ± 0.12^c
LNCaP cells; 20 nM
  Proliferation index (Mean ± SEM): 69.7 ± 8.4
LNCaP cells; 100 nM
  Proliferation index (Mean ± SEM): 63.8 ± 7.3
DU-145 cells; DU-145, 20 nM
  Proliferation index (Mean ± SEM): 94.7 ± 1.7
DU-145 cells; DU-145, 100 nM
  Proliferation index (Mean ± SEM): 89.3 ± 2.4
Intestinal inflammation; 50 ng
  hypercalcemia at the effective dose: results in hypercalcemia
Intestinal inflammation; mouse model of inflammatory disease
  dose required to improve intestinal inflammation: 50 ng
[9]; 6 pmol per os, 6 hr time point
  plasma 1,25-D3 concentration: not significantly increased
[9]; 24 pmol per os
  peak plasma 1,25-D3, fold over control mouse plasma 1,25-D3: ~14 fold
  peak plasma concentration of 1,25-D3: 1280 pg/mL
  time of peak plasma 1,25-D3 concentration: 1 h
[9]; 24 pmol per os, 24 hrs after treatment
  plasma 1,25-D3 concentration: slightly below the concentration observed in control animals
